# Test results: paper PMC5059489, “Mechanistic evaluation and transcriptional signature of a glutathione S-transferase omega 1 inhibitor” (Nature Communications, 2016)
# “And” between values parts separate entries of the source, which are not always exact repeats. Equal entries are not always repeated.
# Key:
# [1] = system: HCT116p53+/+ cell; assay: MTT cell proliferation at single concentration; type: cell-based, human
# Procedure, shortened: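 MTT read-out (formazan in DMSO, 570 nm) after 3 h dye incubation at 37 °C, following 72 h inhibitor treatment of overnight-attached cells. Triplicate concentrations; ≥3 independent dose–response runs per line.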
# [2] = molecular target: T1, GSTO1 (Homo sapiens, UniProt P78417); assay: GSTO1 substrate assay (reduction of 4-NPG); settings: for IC50: read-out: GSTO substrate assay IC50, cluster screening tables
# T1 sequence (P78417 1-241): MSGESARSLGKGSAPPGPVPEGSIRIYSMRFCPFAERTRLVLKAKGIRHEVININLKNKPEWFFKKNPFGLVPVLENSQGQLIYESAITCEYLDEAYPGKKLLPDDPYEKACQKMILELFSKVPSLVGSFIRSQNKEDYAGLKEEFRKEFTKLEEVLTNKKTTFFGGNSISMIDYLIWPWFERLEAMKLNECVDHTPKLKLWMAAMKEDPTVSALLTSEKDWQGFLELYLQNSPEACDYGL
# Protocol: For activity screening, we adapted a GSTO1 substrate assay that relies on the quantification of the reduction of S-(4-nitrophenacyl)glutathione (4-NPG), a GSTO1-specific substrate[17], using recombinant human GSTO1 in a high-throughput screening format.
# Enzyme activity was measured by monitoring the reduction of 4-NPG to 4-nitroacetophenone by GSTO1.
# [3] = molecular target: T1, GSTO1; assay: In-gel fluorescence competitive CMFDA binding assay, recombinant GSTO1; settings: inhibition of CMFDA binding
# Description: (§1) Primary screening of GSTO inhibitors was based on competitive inhibition of CMFDA binding to endogenous GSTO. Briefly, HCT116^p53+/+ cells (4 × 10^4 per well) were coated in a 12-well plate. […] Cells were then washed with PBS and lysed using Cell Lytic M buffer (Sigma). […] Gels were immediately scanned on a Typhoon variable mode imager (Amersham Bioscience). Quantification of fluorescent band intensity was done using Image Quant 5.2 software.
# [4] = molecular target: T2, endogenous GSTO1 (Homo sapiens, UniProt P78417); assay: In-gel fluorescence competitive CMFDA binding assay, endogenous GSTO1 in HCT116; settings: 10 µM; inhibition of CMFDA binding, HCT116
# T2 sequence (P78417 1-241): T1 sequence (P78417 1-241)
# Description: as §1
Compound,GSTO substrate assay % Inhibition at 10 µM [2] [%],GSTO binding assay (% Inhibition at 10 µM) Recombinant [3] [%],GSTO binding assay (% Inhibition at 10 µM) Endogenous [4] [%],IC50 [2] [nM],% Inhibition of HCT116p53+/+ cell proliferation at 10 µM [1]
Cc1cccc2sc(N(Cc3ccccc3)C(=O)CCl)nc12 [C4-16],32.6,66.3,30.0,,86.3% and 89.8%
CCOC(=O)c1c(NC(=O)CCl)sc2c1CCN(CC)C2 [C2-17],77.2,51.5,24.8,,85.2% and 94.5%
CN(CCCNC(=O)CCl)c1ccccc1 [C3-16],83.1,23.7,45.4,,28.7%
O=C(CCl)N1N=C(c2cccs2)CC1c1ccco1 (stereo not drawn) [C5-22],1.0,68.6,22.7,,41.2%
CCN1CCN(c2ccc(NC(=O)CCl)cc2)CC1 [C1-20],66.9,-8.5,-15.1,,43.7% and 39%
CCN(CC(=O)NC1CCS(=O)(=O)C1)C(=O)CCl (stereo not drawn) [C4-13],27.2,5.1,7.3,,62.3% and 67.3%
Cc1sc2ncn(NC(=O)CCl)c(=O)c2c1C [C2-30],47.4,50.5,41.1,,12.0%
CCOC(=O)c1c(NC(=O)CCl)sc(Cc2ccc3c(c2)OCO3)c1C [C2-13],25.9,48.1,41.3,,38.1%
N#CCCN(C(=O)CCl)c1cccc(C(F)(F)F)c1 [C4-2],78.6,53.2,52.8,1070,84.1% and 93.6%
O=C(CCl)NCCCSc1ccccc1 [C3-14],78.4,38.8,56.4,,28.5%
CN(CC(=O)N1CCOCC1)C(=O)CCl [C4-12],81.7,-4.7,-29.3,,91.1% and 92.6%
O=C(CCl)N(CC(F)(F)F)c1ccc(Cl)cc1 [C4-1],73.0,40.4,58.5,3800,76.2% and 81.4%
NC(=O)C1CN(C(=O)CCl)c2ccccc2O1 (stereo not drawn) [C5-24],83.7,54.9,69.2,4110,79.8% and 87.3%
O=C(CCl)Nc1nc2cc3c(cc2s1)OCCO3 [C2-27],85.1,69.0,59.6,8670,42.6% and 38.2%
COc1ccc2cc(CN(C)C(=O)CCl)ccc2c1 [C4-6],29.3,55.2,49.5,,44.1% and 68.5%
CCOC(=O)c1c(NC(=O)CCl)sc(C(=O)Nc2ccc(C)cc2C)c1C [C2-14],-7.0,57.9,58.2,,6.3%

# More lines, main results first:
GSTO substrate assay % Inhibition at 10 µM [2] [%],GSTO binding assay (% Inhibition at 10 µM) Recombinant [3] [%],GSTO binding assay (% Inhibition at 10 µM) Endogenous [4] [%],IC50 [2] [nM],Compound,% Inhibition of HCT116p53+/+ cell proliferation at 10 µM [1]
61.5,38.3,65.7,,CC1CCN(c2ccc(NC(=O)CCl)cc2)CC1 [C1-19],79.2% and 85.4%
72.8,65.1,53.1,338,O=C(CCl)N1CCN(Cc2ccccc2F)CC1 [C5-7],-2.0% and -4.5%
77.7,75.6,56.6,162,O=C(CCl)Nc1ccc(Oc2ccc(Br)cc2)cc1 [C1-7],29.6%
42.7,3.9,32.9,,CC(C)(C)c1ccc(C(=O)NNC(=O)CCl)cc1 [C3-20],29.1%
23.3,9.8,20.6,,Cc1cccc(C(O)(C(=O)NN(C(=O)CCl)C2CCCCC2)c2cccc(C)c2)c1 [C4-21],50.6% and 54.9%
3.7,6.4,54.4,,O=C(CCl)Nc1ccccc1N1CCCC1=O [C1-18],41.5% and 41.7%
96.3,52.9,22.9,,C=CCSc1ccccc1NC(=O)CCl [C1-5],-3.8% and -2.6%
54.8,-0.8,45.0,,CCN1CCC(NC(=O)CCl)CC1 [C2-1],65.6% and 62.7%
34.0,82.4,62.1,,COc1ccc(-c2csc(NC(=O)CCl)n2)c(O)c1 [C2-24],22.9% and 19.2%
82.4,36.2,57.1,,O=C(CCl)NCC(=O)Nc1ccc(F)c(F)c1 [C3-25],64.5% and 67.8%
98.1,61.1,66.2,156,N#Cc1ccccc1S(=O)(=O)N1CCN(C(=O)CCl)CC1 [C5-13],81.1% and 55.9%
68.3,59.8,55.8,411,O=C(CCl)N1CCN(Cc2ccc(Br)s2)CC1 [C5-10],71.5% and 90.4%
86.4,63.3,63.6,1480,CCN(CC)S(=O)(=O)c1ccc(CNC(=O)CCl)cc1 [C3-2],55.3% and 49.6%
62.2,35.2,61.1,,O=C(CCl)Nc1ccccc1C(=O)NCc1ccco1 [C1-13],14.3% and 6.6%
83.2,22.0,9.7,,CN(C)C(CNC(=O)CCl)c1ccccc1 (stereo not drawn) [C3-12],5%
90.5,6.5,66.7,,O=C(CCl)NC1CCN(Cc2ccccc2)CC1 [C2-2],1.1%
88.5,-4.1,-9.5,,O=C(CCl)Nc1cc(C(F)(F)F)ccc1N1CCCC1 [C1-17],94.8% and 91%
79.7,56.0,55.3,598,O=C(CCl)Nc1ccnn1Cc1cccc(Cl)c1 [C2-7],85.7% and 91%
0.5,35.8,51.3,,Cc1ccc(C)c(-n2nc(C)cc2NC(=O)CCl)c1 [C2-4],81.4% and 84.4%
